Data as given in ChEMBL document CHEMBL4680108, “Ancistrolikokine E, a 5,8'-Coupled Naphthylisoquinoline Alkaloid, Eliminates the Tolerance of Cancer Cells to Nutrition Starvation by Inhibition of the Akt/mTOR/Autophagy Signaling Pathway” (2018).

Test system: PANC-1
Experiment: Inhibition of autophagy in human PANC-1 cells cultured in nutrient-deprived medium assessed as inhibition of LC3-2 expression at […] after 6 hrs by Western blot analysis relative to control
Type: functional

## Cn1cnc(N)c2ncnc1-2 [3-METHYLADENINE]
  fold change (FC): 2
